{"source": "patent US11304892B2", "about": "“Alteromonas macleodii Dow02-2 and its metabolites for improving skin moisturization” (TCI Co., Ltd., priority 2018, dated 2022)", "format_in_all_cases": "cell-based", "settings_in_all_cases": "HPEK-50 cells, 10 μg/ml, 6 hours, 37° C.", "key": {"TGM1 gene": {"system": "TGM1 gene", "assay": "qPCR relative expression of TGM1 gene in human epidermal keratinocytes HPEK-50", "description": "(§1) The human epidermal keratinocytes HPEK-50 were cultured with a keratinocyte-SFM at 37° C. for 24 hours. Thereafter, the cells were divided into eight groups and respectively cultured with the following media at 37° C. for 6 hours: • 1. Control group: keratinocyte-SFM; • 2. “Supernatant” group: keratinocyte-SFM that was additionally added with 62.5 μg/ml of the supernatant obtained from [Preparation Example] B; • 3. “Fraction 1” group: keratinocyte-SFM that was additionally added with 62.5 μg/ml of the Fraction 1 obtained from [Preparation Example] C-1; • 4. “Fraction 2” group: keratinocyte-SFM that was additionally added with 62.5 μg/ml of the Fraction 2 obtained from [Preparation Example] C-1; • 5. […]\n(§2) To investigate the effects of metabolites of Alteromonas macleodii Dow02-2 and 2-hydroxy-3-methylbutyric acid on moisturizing skin, inventors of the present invention collected the cells in each group of Example 1-1. […] Thereafter, the cDNA was subjected to a quantitative polymerase chain reaction (qPCR) by using a KAPA CYBR FAST qPCR kit (purchased from KAPA Biosystems) and ABI StepOne Plus™ System to determine the expression levels of moisturizing-related genes such as TGM1 gene, KRT1 gene, KRT10 gene, KRT14 gene, FLG gene, GBA gene and HAS3 gene in the cells of each group. […]"}, "KRT1 gene": {"system": "KRT1 gene", "assay": "qPCR relative expression of KRT1 gene in human epidermal keratinocytes HPEK-50", "description": "as §1, §2"}, "KRT10 gene": {"system": "KRT10 gene", "assay": "qPCR relative expression of KRT10 gene in human epidermal keratinocytes HPEK-50", "description": "as §1, §2"}, "KRT14 gene": {"system": "KRT14 gene", "assay": "qPCR relative expression of KRT14 gene in human epidermal keratinocytes HPEK-50", "description": "as §1, §2"}, "FLG gene": {"system": "FLG gene", "assay": "qPCR relative expression of FLG gene in human epidermal keratinocytes HPEK-50", "description": "as §1, §2"}, "GBA gene": {"system": "GBA gene", "assay": "qPCR relative expression of GBA gene in human epidermal keratinocytes HPEK-50", "description": "as §1, §2"}, "HAS3 gene": {"system": "HAS3 gene", "assay": "qPCR relative expression of HAS3 gene in human epidermal keratinocytes HPEK-50", "description": "as §1, §2"}}, "data": [{"smiles": "CC(C)C(O)C(=O)O", "note": "(stereo not shown) [2-hydroxy-3-methylbutyric acid]", "values": [{"measurement": "increase of expression level of TGM1 gene in comparison with the control group", "setting": "TGM1 gene", "result": 26, "unit": "%"}, {"measurement": "increase of expression level of KRT1 gene in comparison with the control group", "setting": "KRT1 gene", "result": 29, "unit": "%"}, {"measurement": "increase of expression level of KRT10 gene in comparison with the control group", "setting": "KRT10 gene", "result": 158, "unit": "%"}, {"measurement": "increase of expression level of KRT14 gene in comparison with the control group", "setting": "KRT14 gene", "result": 43, "unit": "%"}, {"measurement": "increase of expression level of FLG gene in comparison with the control group", "setting": "FLG gene", "result": 41, "unit": "%"}, {"measurement": "increase of expression level of GBA gene in comparison with the control group", "setting": "GBA gene", "result": 49, "unit": "%"}, {"measurement": "increase of expression level of HAS3 gene in comparison with the control group", "setting": "HAS3 gene", "result": 97, "unit": "%"}]}]}
